# In ChEMBL document CHEMBL3832761, “MMV Pathogen Box Bioactivity Data” (2017):
# Assays:
# Type in all cases: functional
# [1] = system: Mycobacterium tuberculosis; assay: AntiMycobacterium tuberculosis activity 1-week 7H9/cholesterol/BSA/Tx MIC (uM); conditions: 168 h
# [2] = system: Mycobacterium tuberculosis; assay: AntiMycobacterium tuberculosis activity day 21 in 7H9/2.5mM butyrate/pH6/0.1mM nitrite MIC90 (uM); conditions: 504 h
# [3] = system: Mycobacterium tuberculosis; assay: (§1) AntiMycobacterium tuberculosis activity day 10 in 7H9/2.5mM butyrate/pH6/0.1mM nitrite MIC90 (uM); conditions: 240 h
# [4] = system: Mycobacterium tuberculosis; assay: AntiMycobacterium tuberculosis activity 1-week GAST/Fe MIC (uM); conditions: 168 h
# [5] = system: Mycobacterium tuberculosis; assay: AntiMycobacterium tuberculosis activity 2-week Alamar Blue 7H9/cholesterol/BSA/Tx MIC (uM); conditions: 336 h
# HepG2 = assay: HepG2 CC50 (uM) Cytotoxicity; conditions: Homo sapiens
# [6] = system: Mycobacterium tuberculosis; assay: AntiMycobacterium tuberculosis activity 2-week Alamar Blue 7H9/ADC/Tw MIC (uM); conditions: 336 h
# [7] = system: Mycobacterium tuberculosis; assay: AntiMycobacterium tuberculosis activity day 21 MIC99 in 7H9/2.5mM butyrate/pH6/0.1mM nitrite MIC99 (uM); conditions: 504 h
# [8] = system: Mycobacterium tuberculosis; assay: as §1; conditions: 240 h; remark: listed apart in the source
# [9] = system: Mycobacterium tuberculosis; assay: AntiMycobacterium tuberculosis activity Non-Replicating form: Average MIC90 (uM)
# [10] = system: Mycobacterium tuberculosis; assay: AntiMycobacterium tuberculosis activity 1-week 7H9/DPPC/cholesterol/BSA/Tx MIC (uM); conditions: 168 h
# [11] = system: Mycobacterium tuberculosis; assay: AntiMycobacterium tuberculosis activity 2-week GAST/Fe MIC (uM); conditions: 336 h
# [12] = system: Mycobacterium tuberculosis; assay: AntiMycobacterium tuberculosis activity 1-week 7H9/glucose/BSA/Tx MIC (uM); conditions: 168 h
# [13] = system: Mycobacterium tuberculosis; assay: AntiMycobacterium tuberculosis activity 2-week 7H9/ADC/Tw MIC (uM); conditions: 336 h
# [14] = system: Mycobacterium tuberculosis; assay: AntiMycobacterium tuberculosis activity Replicating form: Average MIC90 (uM)
# [15] = system: Mycobacterium tuberculosis; assay: AntiMycobacterium tuberculosis activity 2-week 7H9/glucose/BSA/Tx MIC (uM); conditions: 336 h
# [16] = system: Mycobacterium tuberculosis; assay: AntiMycobacterium tuberculosis activity 1-week 7H9/ADC/Tw MIC (uM); conditions: 168 h
# [17] = system: Mycobacterium tuberculosis; assay: AntiMycobacterium tuberculosis activity 2-week 7H9/DPPC/cholesterol/BSA/Tx MIC (uM); conditions: 336 h
SMILES,MIC [1] [µM],MIC90 [2] [µM],MIC90 [3] [µM],MIC [4] [µM],MIC [5] [µM],CC50 (HepG2) [µM],MIC [6] [µM],MIC [7] [µM],MIC90 [8] [µM],MIC90 [9] [µM],MIC [10] [µM],MIC [11] [µM],MIC [12] [µM],MIC [13] [µM],MIC90 [14] [µM],MIC [15] [µM],MIC [16] [µM],MIC [17] [µM]
Cc1ccc(NC(=O)CC2COc3ccccc3O2)cc1Cl (configuration not stated),19,50,50,9.4,25,66.7,50,> 50,> 50,56.9,19,12.5,19,50,53.8,25,37,37
c1cncc(NCc2ccc(-c3cc4ccncc4cc3OC3CCNCC3)s2)c1,50,> 50,> 50,3.13,37,8,12.5,> 50,> 50,58.7,50,4.7,≥ 50,37,11.8,≥ 50,50,50
Cn1ccnc1CNCCS(=O)(=O)c1cccc(Nc2ccc(-c3cccc(F)c3)cn2)c1,25,> 50,> 50,25,37,46.1,> 50,> 50,> 50,> 100,12.5,25,19,> 50,> 100,> 50,50,≥ 50
COc1cccc(OCC(=O)c2ccc(Br)cc2)c1,12.5,25,12.5,9.4,50,> 100,25,50,25,> 100,19,9.4,19,50,> 100,50,19,50
O=C(Nc1nnc(-c2ccc(Cl)cc2)o1)c1cccc(C(F)(F)F)c1,19,12.5,12.5,0.05,12.5,9,25,50,> 50,2.71,4.7,0.07,3.13,25,27.2,6.25,25,19
CCCCc1ccc(C(=O)Nc2nccc3ccccc23)nc1,0.78,6.25,3.12,0.78,1.56,73.8,6.25,6.25,3.12,61,2.3,1.56,6.25,6.25,39.1,9.4,4.7,4.7
CCC(C)NC(=O)c1ccc(NC(=O)C2(c3ccccc3)CCCC2)cc1 (configuration not stated),> 50,> 50,> 50,12.5,> 50,> 100,> 50,> 50,> 50,> 100,> 50,> 50,> 50,> 50,> 100,> 50,> 50,> 50
O=C1O[C@@H](CO)CN1c1cc(F)c(C2=CCN(Cc3ccccc3)CC2)c(F)c1,4.7,50,50,9.4,4.7,38.8,3.13,> 50,> 50,19,9.4,9.4,4.7,4.7,11.6,4.7,4.7,9.4
FC(F)(F)c1nnc2ccc(Cl)nn12,4.7,50,3.12,0.6,6.25,> 100,4.7,> 50,> 50,7.75,4.7,1.2,3.13,6.25,6.37,4.7,3.13,6.25
